Source: patent US10682310B2, “Therapeutic compounds and formulations for intranasal delivery” (priority 2015, dated 2020)
Where “and” joins values, the source holds several entries; their conditions need not be identical. Identical values can stand only once. Counter-ions that a name gives are not always drawn.

How the values were obtained:
[1] = Membrane permeation across MDCKII-wt monolayers (Transwell); conditions: dog, MDCK
Description: (§1) In vitro permeation studies were also performed on prodrug/enzyme mixtures prepared at various prodrug and enzyme concentrations. […] The experiments were carried out as follows. Maden Darby Canine Kidney-II wild type (MDCK-IIwt) cells were plated on thin membranes in a six well Transwell apparatus. Following confluence and washing, assay buffer (PBS, pH 7.4) was introduced into the basal side of the membrane. At time zero, solutions of various concentrations of prodrug were combined with 0.25 U/ml of A.O protease and introduced on the […] side of the membrane. Aliquots were then taken, with replacement, from both the basal and apical sides, and assayed for both drug and prodrug. The integrity of the membranes throughout the experiment was confirmed by transepithelial resistance (TEER) and inulin permeation measurements.
(§2) Following previously published procedures (Kapoor M, et al., AAPS J, 2014, 16, 3, 577-585; and Kapoor M, et al., Mol Pharm, 2013, 10, 9, 519-3524), Madin Darby canine kidney II wild type (MDCKII-wt: passages between 10 and 20) cells were cultured and grown as monolayers in 12-well Transwell plates ([…] pore size, polyester, Corning). Transepithelial electrical resistance (TEER) was measured to assure membrane integrity just prior to conversion/permeation experiments. TEER and a Lucifer yellow dye permeability assay were used to reassess monolayer integrity at the conclusion of each experiment.
(§3) In separate experiments, solutions containing 900 μM AVFp or AVFm were rapidly mixed with A.O. protease (4 U/mL) in assay buffer (pH 7.4 at 32° C.), and administered at time zero on the apical side of MDCKII-wt monolayers cultured in a 12-well Transwell plate (Kapoor M, et al., AAPS J, 2014, 16, 3, 577-585; and Kapoor M, et al., Mol Pharm, 2013, 10, 9, 519-3524).
(§4) To assess transport of MDZ through the MDCKII-wt monolayer membrane, MDZ, 55 μM (S=1) was introduced on the apical side of the monolayer in a 12-well Transwell, and accumulation of MDZ on the basal side was assayed as a function of time.

MDCKII-wt monolayer = experiment: as above
Description: as §1, §2, §3, §4

[2] = MDZ equilibrium solubility in assay buffer; type: physicochemical; conditions: aqueous buffer, thermodynamic from solid; assay buffer pH 7.4, 32° C.
Description: Equilibrium solubility of MDZ in assay buffer was determined at three temperatures: 25, 32 and 37° C. There was essentially no effect of temperature on drug thermodynamic solubility within this temperature range.

MDCKII-wt monolayers = experiment: Monolayer intactness by TEER and Lucifer yellow permeability after 2 h exposure; conditions: A.O. protease 1-16 U/mL
Description: as §2

A.O. protease = experiment: Conversion of prodrug by A.O. protease on apical side of MDCKII-wt monolayers, supersaturated drug; type: in vitro ADME, Aspergillus Oryzae; conditions: for precipitates of supersaturated drug formed from prodrug/enzyme: apical compartment after prodrug/A.O. protease administration
Description: The same was also shown for MDZ-pro. The experiments were carried out as follows.
Appropriate molar concentrations of MDZ-pro equivalent to supersaturated MDZ solution were incubated with the converting enzyme in assay buffer, pH 7.4 at 32° C. (nasal temperature). Supersaturation potential, S, was calculated as the ratio between the molar concentration of administered MDZ-pro and the molar concentration of saturated MDZ:
Rapidly mixed solutions of chirally pure MDZ-pro and A.O protease were administered onto the apical side of MDCKII-wt monolayers and MDZ-pro, and MDZ concentrations were analyzed on both the apical and basal sides as a function of time. An example of prodrug and drug kinetics in the apical compartment is shown in FIG. 5b (MDZ-pro 326 μM, A.O. protease 16 U/mL). Rapid conversion of prodrug (complete within 30 min) was followed by an extended residence of supersaturated drug in the apical chamber, with supersaturation reached in less than 5 min. […] Apical concentrations of MDZ were close to those predicted, based on a two compartment model with input due to enzymatic conversion of MDZ-pro to MDZ, with assumed rate constant kconv=Vmax/KM.

[3] = test system: A.O. protease (Aspergillus Oryzae); experiment: Enzyme kinetics of prodrug conversion by A.O. protease (HPLC, integrated Michaelis-Menten fit); type: biochemical; conditions: for conversion of prodrug to DZP: 480 μM prodrug, A.O. protease 2-8 U/mL; for conversion of prodrug to DZP / Km / Vmax: assay buffer pH 7.4, 32° C.; for extent of conversion by A.O. protease: chirally pure prodrug; for catalytic efficiency as Vmax/(U/mL of A.O. protease): pH 7.4, 32° C.
Description: Enzyme Kinetics. To determine the enzyme kinetic parameters KM and Vmax for a prodrug/enzyme system, various concentrations of prodrug were incubated in assay buffer, pH 7.4 containing A.O. protease, at 32° C., for a fixed time period t, at which point the reaction was stopped using methanol as an enzyme denaturant. […] The reactions were carried out to times when there was already substantial conversion. Concentrations of product, Cd(t) were fit against initial prodrug concentrations, Cp (0), using the integrated Michaelis-Menten equation: Cd(t)+KM ln[1−Cd(t)/Cp(0)]=Vmaxt (1) Fitting was carried out using the Matlab nlinfit function (Mathworks).
AVFm and AVFp (each at 480 μM) were incubated with A.O. protease (2-8 U/mL) in assay buffer over various time intervals in assay buffer pH 7.4 at 32° C.
The Michaelis Menten parameters for AVFp reactions were determined by carrying out reactions for t=5 min in solutions containing A.O. protease.
The extent of reaction was determined after t=12 min with MDZ-pro incubated, at different concentrations, in assay buffer with 4 U/ml A.O. protease.

[4] = AVFp to DZP, 0.25 U/ml A.O. protease, t=5 min
[5] = MDZ-pro to MDZ, 4 U/ml A.O. protease, t=12 min, estimates (s.e.m.)
[6] = MDZ-pro 326 μM, A.O. protease 16 U/mL, apical compartment

Which results are given for Cc1ncc2n1-c1ccc(Cl)cc1C(c1ccccc1F)=NC2 [MDZ, midazolam]?
Papp A→B at 55 μM [1]: 26.5 ×10⁻⁶ cm/s; clearance CL of the membrane (MDCKII-wt monolayer; MDZ 55 μM (S=1) apical, 12-well Transwell, two compartment model fit): 0.11 ± 0.01 mL/h; solubility thermodynamic [2]: 55 µM and 15.5 µg/mL; % TEER values (MDCKII-wt monolayers): unaffected; precipitates of supersaturated drug formed from prodrug/enzyme (A.O. protease): none were found

With CN(C(=O)CNC(=O)[C@@H](N)CCCCN)c1ccc(Cl)cc1C(=O)c1ccccc1 [AVF, Avizafone] as the compound, how does the “permeation of prodrug across the membrane” value (MDCKII-wt monolayer; AVF/enzyme administered on the apical side) read?
Its value is “not to permeate the membrane significantly”.

What about the “permeation of prodrug across the monolayer” value (MDCKII-wt monolayer; in the absence of enzyme, AVF pure or mix (data not shown)) of the same compound?
Its value is “negligible permeation”.

For CN(C(=O)CNC(=O)[C@@H](N)CCCCN)c1ccc(Cl)cc1C(=O)c1ccccc1 [AVFm], which “conversion of prodrug to DZP” value [3] is on record?
The value was roughly 70%.

With CN(C(=O)CNC(=O)[C@@H](N)CCCCN)c1ccc(Cl)cc1C(=O)c1ccccc1 [AVFp, Avizafone Hydrochloride] as the compound, how does the “conversion of prodrug to DZP” value ([3]; Hydrochloride) read?
Its value is 100%.

And the Km [3, 4]?
Its Km is 3.38 ± 0.34 mM.

And the Vmax [3, 4]?
Its Vmax is 0.518 ± 0.030 mM/min.

And the “extent of conversion by A.O. protease” value [3]?
Its value is “complete conversion”.

What about the “catalytic efficiency as Vmax/(U/mL of A.O. protease)” value [3] of the same compound?
Its value is 2.07 mM/min/(U/ml).

What about the “rate and amount of DZP permeation compared with enantiomeric mixture AVFm” value (MDCKII-wt monolayer; 900 μM prodrug, A.O. protease 4 U/mL, apical, pH 7.4, 32° C., each time point) of the same compound?
The value was “greater”.

What does the source list for Cc1ncc(CNC(=O)[C@@H](N)CCCCN)n1-c1ccc(Cl)cc1C(=O)c1ccccc1F [MDZ-pro, Midazolam L-Lysine Prodrug]?
Km [3, 5]: 5.86 ± 0.83 mM; Vmax [3, 5]: 0.233 ± 0.022 mM/min; extent of conversion by A.O. protease [3]: complete conversion; catalytic efficiency as Vmax/(U/mL of A.O. protease) [3]: 0.0582 mM/min/(U/ml); conversion via endogenous enzymes (MDCKII-wt monolayer; MDZ-pro alone (without enzyme), apical, 2 h, up to 2 mM): negligible conversion; prodrug permeation through MDCKII-wt monolayers (MDCKII-wt monolayer; MDZ-pro alone (without enzyme), apical, 2 h, up to 2 mM initial prodrug concentration): negligible prodrug permeation; % TEER values (MDCKII-wt monolayers): unaffected; time to complete conversion of prodrug (A.O. protease; [6]): ≤ 30 min; time to reach supersaturation (A.O. protease; [6]): less than 5 min

With CN1C(=O)CN=C(c2ccccc2)c2cc(Cl)ccc21 [DZP, diazepam] as the compound, how does the “precipitates of supersaturated drug formed from prodrug/enzyme” value (A.O. protease) read?
The value was “no evidence of formation of DZP precipitates”.
